According to patent US6646137B1, “Non-peptide GnRH agents” (priority 1998, dated 2003):
Where two headings read alike, the source gives them in different places.

Target: T1, human GnRH receptor (Homo sapiens, UniProt P30968)
T1 construct: The cDNA for the human GnRH receptor is cloned into the plasmid expression vector, pcDNA 3; expressed in transfected cells; host or cells: HEK 293 cells, stably transfected (pcDNA 3); membrane preparation
T1 sequence (P30968 1-328): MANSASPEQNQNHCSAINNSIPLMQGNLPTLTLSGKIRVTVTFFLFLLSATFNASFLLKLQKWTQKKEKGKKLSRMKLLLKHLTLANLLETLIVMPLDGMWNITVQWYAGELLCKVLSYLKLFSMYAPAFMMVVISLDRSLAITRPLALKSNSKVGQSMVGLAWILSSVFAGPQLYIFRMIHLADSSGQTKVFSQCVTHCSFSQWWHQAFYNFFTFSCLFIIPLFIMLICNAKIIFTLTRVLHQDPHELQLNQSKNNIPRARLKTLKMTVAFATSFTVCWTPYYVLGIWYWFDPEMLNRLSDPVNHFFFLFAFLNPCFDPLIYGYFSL
Experiment: GnRH receptor competitive radioligand binding assay (125I-GnRH-A, HEK 293 cell membranes)
Settings: compound at 10 μM
Source text: The cDNA for the human GnRH receptor is cloned into the plasmid expression vector, pcDNA 3 (In Vitrogen), and stably transfected in HEK 293 cells (a cell line developed by Dr. Stuart Sealfon, Mount Sinai Medical School, New York, N.Y.).
The human GnRH receptor (hGnRH) is cloned into pcDNA 3 (In Vitrogen), which provides high-level expression and a neomycin resistance marker. Lipofectamine (GIBCO BRL) is used to transfect HEK 293 cells with plasmid DNA. This method involves mixing the plasmid and reagent in serum-free medium, allowing DNA-liposome complexes to form, and overlaying cells with this solution. The HEK 293 cells are plated (seeded) on a 10-cm tissue culture dish at a density of 3×10^6 cells/dish the day before transfection. For each plate, 8 μg DNA plus 0.8 mL serum-free medium is mixed with 48 μL lipofectamine plus 0.8 mL serum-free medium, followed by incubation for 30 minutes at room temperature to allow DNA-liposome complexes to form. Serum-free medium is added to give a final volume of 6 mL/plate. The cells are rinsed twice with serum-free medium and overlayed with the DNA-liposome mixture. Five hours after transfection, an equal volume (6 mL) of medium containing 20% FBS (fetal bovine serum) is added. The cells are fed with fresh complete medium 18-24 hours after transfection. The cells are split 72 hours following transfection, at densities of 1:10 and 1:20. Stable tranformants are selected for by growth of the cells in antibiotic containing medium (G418, Sigma Chemical Company (also known as Geneticin)). Colonies are isolated and tested for receptor expression by radioligand binding and by measuring phosphoinositol turnover.
HEK 293 cells stably transfected with human GnRH receptors as described above are grown in MEM (minimal essential medium, available from Sigma Chemical Company) supplemented with 0.1% G418 (Sigma Chemical Company). Cells are homogenized in buffer A containing 50 mM Tris (pH 74.), 0.32M sucrose, 2 mM ethyleneglycol-bis(β-aminoethyl)-N,N,N′,N′-tetraacetic acid (EGTA), 1 mM phenylmethylsulfonyl fluoride (PMSF), 5 μg/mL aprotinen, 5 μg/mL Pepstatin A, and 1 μg/mL leupeptin. The homogenized cells are centrifuged at 4° C. at 20,000×g for 25 minutes, resuspended in buffer A, and recentrifuged at 4° C. at 20,000×g for an additional 25 minutes. Total membrane protein is determined with a BCA kit (Pierce, Rockford, Ill.). Membranes are stored at −70° C. at a final membrane protein concentration of 5 mg/mL.
The radioiodinated agonist analog of GnRH, [des-Gly^10, D-Ala^8]GnRH ethylamide (GnRH-A), is used as the labeled ligand. One μg of GnRH-A diluted in 0.1M acetic acid is added to an lodogen®-coated borosilicate glass tube pierce) containing 35 μL of 0.05M phosphate buffer (pH 7.4-7.6) and 1 mCi of Na[^125I]. The reaction mixture is vortexed and incubated for 1 minute at room temperature. After one minute, the mixture is vortexed again and allowed to incubate for an additional minute. Two mL of 0.5M acetic acid/1% BSA is added to the reaction tube, and the mixture is added to a C18 Sep-Pak cartridge. The cartridge is washed with subsequent washes of 5 mL H2O and 5 mL 0.5M acetic acid, and then eluted with 5×1 mL of 60% CH3CN/40% 0.5M acetic acid. The eluant is diluted with 3×volume of HPLC buffer A (0.1% TFA in H2O) and loaded onto a C18 column. The iodinated product is eluted over 20-25 minutes with a gradient of 25-100% CH3CN containing 0.1% TFA. The radioactive fractions (750 μL/fraction) are collected into clean polypropylene tubes containing 10 μL of 10% BSA. Fractions are assessed for biological activity by radioligand binding. Active fractions are utilized to screen the compounds for competitive binding assays.
HEK 293 cell membranes stably expressing hGnRHR (human GnRH receptors) are diluted to 0.5-1.0 mg/mL with assay buffer containing 50 mM HEPES (pH 7.4), 1 mM ethylenediarninetetraacetic acid (EDTA), 2.5 mM MgCl2, and 0.1% BSA. […]

[1] = average of 1st and 2nd test, read-out: Average % Remaining (percent of specific binding remaining)
[2] = crude compounds, 125I-GnRH-A, lower value = higher inhibition, read-out: % Remaining 1st Test (percent of specific binding remaining)
[3] = crude compounds, 125I-GnRH-A, lower value = higher inhibition, read-out: % Remaining 2nd Test (percent of specific binding remaining)

| Compound | remaining activity at 10 µM [1] | remaining activity at 10 µM [2] | remaining activity at 10 µM [3] |
| --- | --- | --- | --- |
| CC(C)(C)c1ccc(CN(Cc2ccc(CNC(=N)N)cc2)C(=O)c2cccc3ccccc23)cc1 [Compound 1] | 57% | 57% | 57% |
| CC(C)(C)c1ccc(CN(Cc2ccc(CNC(=N)N)cc2)C(=O)c2ccccc2)cc1 [Compound 2] | 57% | 59% | 54% |
| CN(C)CCCOc1ccc(CN(Cc2ccc(CNC(=N)N)cc2)C(=O)c2ccc3ccccc3c2)cc1 [Compound 3] | 55% | 58% | 57% |
| N=C(N)NCc1ccc(CN(CC23CC=CCC2C2CC=CCC2O3)C(=O)c2cccc3ccccc23)cc1 (stereo not drawn) [Compound 4] | 40% | 40% | 40% |
| N=C(N)NCc1ccc(CN(CC23CC=CCC2C2CC=CCC2O3)C(=O)c2ccc3ccccc3c2)cc1 (stereo not drawn) [Compound 5] | 37% | 31% | 33% |
| N=C(N)NCc1ccc(CN(CC23CC=CCC2C2CC=CCC2O3)C(=O)c2cccs2)cc1 (stereo not drawn) [Compound 6] | 46% | 47% | 45% |
| N=C(N)NCc1ccc(CN(CC23CC=CCC2C2CC=CCC2O3)C(=O)c2ccco2)cc1 (stereo not drawn) [Compound 7] | 53% | 51% | 55% |
| N=C(N)NCc1ccc(CN(CC23CC=CCC2C2CC=CCC2O3)C(=O)c2ccccc2)cc1 (stereo not drawn) [Compound 8] | 45% | 42% | 48% |
| N=C(N)NCc1ccc(CN(CC23CC=CCC2C2CC=CCC2O3)C(=O)c2ccc(Cl)nc2)cc1 (stereo not drawn) [Compound 9] | 52% | 51% | 53% |
| Cc1cc2c(cc1CN(Cc1ccc(CNC(=N)N)cc1)C(=O)C1CCCCC1)C(C)(C)CCC2(C)C [Compound 10] | 53% | 51% | 54% |
| Cc1cc2c(cc1CN(Cc1ccc(CNC(=N)N)cc1)C(=O)c1cccc3ccccc13)C(C)(C)CCC2(C)C [Compound 11] | 53% | 55% | 50% |
| Cc1cc2c(cc1CN(Cc1ccc(CNC(=N)N)cc1)C(=O)c1ccco1)C(C)(C)CCC2(C)C [Compound 13] | 13% | 14% | 11% |
| Cc1cc2c(cc1CN(Cc1ccc(CNC(=N)N)cc1)C(=O)c1ccccc1)C(C)(C)CCC2(C)C [Compound 14] | 55% | 56% | 54% |

Further lines, results first:

| remaining activity at 10 µM [1] | remaining activity at 10 µM [2] | remaining activity at 10 µM [3] | Compound |
| --- | --- | --- | --- |
| 59% | 58% | 60% | CC(=O)N(Cc1ccc(CNC(=N)N)cc1)Cc1cc2c(cc1C)C(C)(C)CCC2(C)C [Compound 15] |
| 49% | 50% | 47% | Cc1cc2c(cc1CN(Cc1ccc(CNC(=N)N)cc1)C(=O)c1ccc(Cl)nc1)C(C)(C)CCC2(C)C [Compound 16] |
| 45% | 47% | 42% | N=C(N)NCc1ccc(CN(Cc2ccc(OCc3ccccc3)c(OCc3ccccc3)c2)C(=O)c2ccccc2)cc1 [Compound 19] |
| 57% | 60% | 54% | N=C(N)NCc1ccc(CN(Cc2ccc(OCc3ccccc3)c(OCc3ccccc3)c2)C(=O)c2ccc(Cl)nc2)cc1 [Compound 20] |
| 49% | 46% | 51% | CC(=O)N(Cc1ccc(CNC(=N)N)cc1)Cc1ccc(OCc2ccccc2)c(OCc2ccccc2)c1 [Compound 21] |
| 55% | 52% | 57% | CCOc1cc(OCC)c(OCC)cc1CN(Cc1ccc(CNC(=N)N)cc1)C(=O)c1ccco1 [Compound 22] |
